In patent EP4603105A1, “PHARMACEUTICAL COMPOSITION CONTAINING CYCLIC COMPOUND HAVING SELECTIVE KRAS INHIBITORY EFFECT AGAINST HRAS AND NRAS” (CHUGAI SEIYAKU KABUSHIKI KAISHA, priority 2022, dated 2024):
Where a SMILES comes first, the peptide text is derived from it. Bridges are numbered along the chain shown (N, C = ends). [ ]: non-standard residue; d: D form. The star is where a group is joined. hPhe(3-Cl-4-CF3) = N[C@@H](CCc1ccc(C(F)(F)F)c(Cl)c1)C(=O)O; NPrPhe(4-CF3) = CCCN[C@@H](Cc1ccc(C(F)(F)F)cc1)C(=O)O; NMeGly(cPent) = CN[C@H](C(=O)O)C1CCCC1; NMeD = CN[C@@H](CC(=O)O)C(=O)O; NMeL = CN[C@@H](CC(C)C)C(=O)O; Morpholide = C1CN(*)CCO1; Ac5c = NC1(C(=O)O)CCCC1; Aze = O=C(O)[C@@H]1CCN1; Sar = CNCC(=O)O

Experiments:
[1] = biological target: GDP-bound KRAS wild-type protein (Homo sapiens, UniProt P01116); experiment: Binding to KRAS by surface plasmon resonance (SPR), dissociation constant KD; conditions: 1:1 binding model
Outline: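 Measured at 30°C: SPR with GDP-loaded, E. coli-expressed biotin-Avi RAS captured (~100–300 RU), ascending 75 s compound injections, HBS pH 7.4 with GDP, MgCl2, 4% DMSO. KD from 1:1 fit.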

[2] = biological target: GDP-bound NRAS wild-type protein (Homo sapiens, UniProt P01111); experiment: Binding to NRAS by surface plasmon resonance (SPR), KD and KD ratio to KRAS
Outline: (§1)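 Recombinant RAS proteins bearing a biotinylated Avi tag and loaded with GDP served as the captured ligand, recaptured fresh every cycle. Binding responses were referenced to an uncoated surface and a buffer-only blank cycle. Dissociation constants were obtained by 1:1 model fitting at 30°C.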

HRAS wild-type protein = HRAS wild-type protein (Homo sapiens, UniProt P01112); experiment: Binding to HRAS by surface plasmon resonance (SPR), KD and KD ratio to KRAS
Outline: as §1

[3] = tested on: human lung cancer strain NCI-H441; assay type: cell-based
Outline: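 Signal came from […] measured per well once the reagent was added. Beforehand, cells were cultured at 37°C and 5% carbon dioxide on a compound series serially diluted in dimethyl sulfoxide.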

[4] = ratio of KD for GDP-bound NRAS wild-type protein to KD for KRAS
[5] = ratio of KD for HRAS wild-type protein to KD for KRAS
[6] = ratio of the KD value with respect to GDP-bound NRAS wild-type protein to the KD value with respect to KRAS
[7] = ratio of the KD value with respect to HRAS wild-type protein to the KD value with respect to KRAS
[8] = ratio of KD value for GDP-bound NRAS wild-type protein to KD value for KRAS (SPR)
[9] = ratio of KD value for HRAS wild-type protein to KD value for KRAS (SPR)

Sequence of GDP-bound KRAS wild-type protein (P01116 1-188 isoform P01116-2): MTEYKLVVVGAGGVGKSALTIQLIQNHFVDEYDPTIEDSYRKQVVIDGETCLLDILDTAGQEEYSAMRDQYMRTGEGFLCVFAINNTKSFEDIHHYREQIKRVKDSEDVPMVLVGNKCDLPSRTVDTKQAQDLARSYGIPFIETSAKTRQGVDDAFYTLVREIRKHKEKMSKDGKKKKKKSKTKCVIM
Sequence of HRAS wild-type protein (P01112 whole entry): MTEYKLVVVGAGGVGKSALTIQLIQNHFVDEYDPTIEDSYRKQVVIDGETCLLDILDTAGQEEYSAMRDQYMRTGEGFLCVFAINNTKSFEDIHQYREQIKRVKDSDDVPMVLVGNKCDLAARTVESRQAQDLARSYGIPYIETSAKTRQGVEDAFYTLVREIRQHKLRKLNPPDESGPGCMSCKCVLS
Sequence of GDP-bound NRAS wild-type protein (P01111 whole entry): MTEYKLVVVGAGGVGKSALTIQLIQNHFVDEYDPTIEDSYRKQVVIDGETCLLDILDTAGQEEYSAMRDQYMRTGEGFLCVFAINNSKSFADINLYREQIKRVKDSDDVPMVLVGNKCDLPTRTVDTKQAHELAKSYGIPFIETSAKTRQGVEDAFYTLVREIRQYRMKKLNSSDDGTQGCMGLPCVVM

SMILES | Kd [1] [nM] | NRAS /KRAS [2, 4] | HRAS /KRAS (HRAS wild-type protein; [5]) | IC50 [3] [nM] | Kd ([1]; Single Cycle Kinetics) [nM] | NRAS /KRAS [2, 6] | HRAS /KRAS (HRAS wild-type protein; [7]) | NRAS /KRAS [2, 8] | HRAS /KRAS (HRAS wild-type protein; [9])
CCCN1C(=O)CN(C)C(=O)[C@@H]2CCN2C(=O)[C@H]([C@@H](C)CC)NC(=O)[C@H](CC(C)C)N(C)C(=O)C[C@@H](C(=O)N2CCOCC2)N(C)C(=O)[C@H](C2CCCC2)N(C)C(=O)C2(CCCC2)NC(=O)[C@@H]2CCCN2C(=O)[C@H](CCc2ccc(C(F)(F)F)c(Cl)c2)NC(=O)CN(C)C(=O)[C@@H]1Cc1ccc(C(F)(F)F)cc1 [PP0158] ([NMeL]I[Aze][Sar][NPrPhe(4-CF3)][Sar][hPhe(3-Cl-4-CF3)]P[Ac5c][NMeGly(cPent)][NMeD]-Morpholide; lactam N-11) | 0.85 | A (a compound having 10 or more and less than 20 is denoted as A) | B (a compound having 3 or more and less than 10 is denoted as B) | 15.4 | – | – | – | – | –
CC[C@H](C)[C@@H]1NC(=O)[C@H](CC(C)C)N(C)C(=O)C[C@@H](C(=O)N2CCOCC2)N(C)C(=O)[C@H](C2CCCC2)N(C)C(=O)C2(CCCC2)NC(=O)[C@@H]2CCCN2C(=O)[C@H](CCc2cc(F)c(C(F)(F)F)c(F)c2)NC(=O)CN(C)C(=O)[C@H](Cc2ccc(C(F)(F)F)cc2)N2CCCC[C@@H](C2=O)N(C)C(=O)[C@H](CC)N(C)C1=O [PP0551] | – | – | – | 401 | 38 | C (A compound having a KD ratio of 0.1 or more and less than 3 is denoted as C) | B (a compound having 3 or more and less than 10 is denoted as B) | – | –
CCO[C@@H]1C[C@H]2C(=O)NC3(CCC3)C(=O)N(C)[C@@H](C3CCCC3)C(=O)N(CCc3ccccc3)[C@H](C(=O)N3CCOCC3)CC(=O)N(C)[C@@H](CC(C)C)C(=O)N[C@@H]([C@@H](C)CC)C(=O)N(C)CC(=O)N(C)[C@H]3CCCCCN(C3=O)[C@@H](Cc3ccc(C(F)(F)F)cc3)C(=O)N(C)CC(=O)N[C@@H](CCc3cc(F)c(C(F)(F)F)c(F)c3)C(=O)N2C1 [PP0642] | – | – | – | 2650 | 110 | B (a compound having 3 or more and less than 10 is denoted as B) | B (a compound having 3 or more and less than 10 is denoted as B) | – | –
CCO[C@@H]1C[C@H]2C(=O)NC3(CC(C)(C)C3)C(=O)N(C)[C@@H](C3CCCC3)C(=O)N(C)[C@H](C(=O)N(C)CC)CC(=O)N(C)[C@@H]([C@@H](C)OC)C(=O)N[C@@H]([C@@H](C)CC)C(=O)N(C3CC3)CC(=O)N(C)[C@H]3C/C=C\CCN(C3=O)[C@@H](Cc3ccc(C)cc3)C(=O)N(C)CC(=O)N[C@@H](CCc3ccc(C(F)(F)F)c(OC)c3)C(=O)N2C1 [PP3182] | 0.87 | A (a compound having 10 or more and less than 20 is denoted as A) | A (a compound having 10 or more and less than 20 is denoted as A) | 76.6 | – | – | – | – | –
CCO[C@@H]1C[C@H]2C(=O)NC3(CCC3)C(=O)N(C)[C@@H](C3CCCC3)C(=O)N(C)[C@H](C(=O)N(C)C)CC(=O)N(C)[C@@H](CC3CC3)C(=O)N[C@@H]([C@@H](C)CC)C(=O)N(C)CC(=O)N(C)[C@H]3C/C=C\CCN(C3=O)[C@@H](Cc3ccc(F)cc3C)C(=O)N(C)CC(=O)N[C@@H](CCc3cc(F)c(C(F)(F)F)c(F)c3)C(=O)N2C1 [PP1528] | – | – | – | 45.6 | 0.2 | – | – | A (a compound having 10 or more and less than 20 is denoted as A) | B (a compound having 3 or more and less than 10 is denoted as B)
C#CCN1CC(=O)N(C)[C@H]2C/C=C\CCN(C2=O)[C@@H](Cc2ccc(C)cc2)C(=O)N(C)CC(=O)N[C@@H](CCc2ccc(C(F)(F)F)c(OC)c2)C(=O)N2C[C@H](OCC)C[C@H]2C(=O)NC2(CC(C)(C)C2)C(=O)N(C)[C@@H](C2CCCC2)C(=O)N(C)[C@H](C(=O)N(C)C)CC(=O)N(C)[C@@H](CCC)C(=O)N[C@@H]([C@@H](C)CC)C1=O [PP2099] | – | – | – | 9.1 | 0.14 | A (a compound having 10 or more and less than 20 is denoted as A) | A (a compound having 10 or more and less than 20 is denoted as A) | – | –
CCCC[C@H]1C(=O)N[C@@H]([C@@H](C)CC)C(=O)N(C)CC(=O)N(C)[C@H]2C/C=C\CCN(C2=O)[C@@H](Cc2ccc(C(F)(F)F)cc2)C(=O)N(C)CC(=O)N[C@@H](CCc2ccc(C(F)(F)F)c(Cl)c2)C(=O)N2C[C@H](OCC)C[C@H]2C(=O)NC2(CCC2)C(=O)N(C)[C@@H](C2CCCC2)C(=O)N(C)[C@H](C(=O)N(C)CC)CC(=O)N1C [PP2841] | 0.086 | A (a compound having 10 or more and less than 20 is denoted as A) | A (a compound having 10 or more and less than 20 is denoted as A) | 8.3 | – | – | – | – | –
CCO[C@@H]1C[C@H]2C(=O)NC3(CC(C)(C)C3)C(=O)N(C)[C@@H](C3CCCC3)C(=O)N(C)[C@H](C(=O)N(C)C)CC(=O)N(C)[C@@H](CC(C)C)C(=O)N[C@@H]([C@@H](C)CC)C(=O)N(C3CC3)CC(=O)N(C)[C@H]3C/C=C\CCN(C3=O)[C@@H](Cc3ccc(C)cc3)C(=O)N(C)CC(=O)N[C@@H](CCc3cc(F)c(C(F)(F)F)c(F)c3)C(=O)N2C1 [PP2109] | – | – | – | 5.7 | 0.29 | A (a compound having 10 or more and less than 20 is denoted as A) | A (a compound having 10 or more and less than 20 is denoted as A) | – | –
CCO[C@@H]1C[C@H]2C(=O)NC3(CCC3)C(=O)N(C)[C@@H](C3CCCC3)C(=O)N(CCC3CCC3)[C@H](C(=O)N3CCOCC3)CC(=O)N(C)[C@@H](CC(C)C)C(=O)N[C@@H]([C@@H](C)CC)C(=O)N(C)CC(=O)N(C)[C@H]3CCCCCN(C3=O)[C@@H](Cc3ccc(C(F)(F)F)cc3)C(=O)N(C)CC(=O)N[C@@H](CCc3cc(F)c(C(F)(F)F)c(F)c3)C(=O)N2C1 [PP0640] | – | – | – | > 600 | 20 | B (a compound having 3 or more and less than 10 is denoted as B) | B (a compound having 3 or more and less than 10 is denoted as B) | – | –
CC[C@H](C)[C@@H]1NC(=O)[C@H](COC)NC(=O)C[C@@H](C(=O)N(C)CC)N(C)C(=O)[C@H](C2CCCC2)N(C)C(=O)C2(CC(C)(C)C2)NC(=O)[C@@H]2C[C@@H](F)CN2C(=O)[C@H](CCc2ccc(C(F)(F)F)c(OC)c2)NC(=O)CN(C)C(=O)[C@H](Cc2ccc(C(F)(F)F)cc2)N2CC/C=C\C[C@@H](C2=O)N(C)C(=O)CN(C)C1=O [PP3137] | 0.084 | A (a compound having 10 or more and less than 20 is denoted as A) | A (a compound having 10 or more and less than 20 is denoted as A) | 23 | – | – | – | – | –
CCC[C@H]1C(=O)N[C@@H]([C@@H](C)CC)C(=O)N(C)CC(=O)N(C)[C@H]2C/C=C\CCN(C2=O)[C@@H](Cc2ccc(C)cc2)C(=O)N(C)CC(=O)N[C@@H](CCc2ccc(Cl)c(Cl)c2)C(=O)N2C[C@H](OCC)C[C@H]2C(=O)NC2(CC(C)(C)C2)C(=O)N(C)[C@@H](CC2CC2)C(=O)N(C)[C@H](C(=O)N(C)C)CC(=O)N1C [PP2799] | 1.2 | A (a compound having 10 or more and less than 20 is denoted as A) | A (a compound having 10 or more and less than 20 is denoted as A) | 136 | – | – | – | – | –
CCO[C@@H]1C[C@H]2C(=O)NC3(CC(C)(C)C3)C(=O)N(C)[C@@H](C(CC)CC)C(=O)N(C)[C@H](C(=O)N3CCCC3)CC(=O)N(C)[C@@H](COC)C(=O)N[C@@H]([C@@H](C)CC)C(=O)N(C)CC(=O)N(C)[C@H]3C/C=C\CCN(C3=O)[C@@H](Cc3ccc(C)cc3)C(=O)N(C)CC(=O)N[C@@H](CCc3cc(F)c(C(F)(F)F)c(F)c3)C(=O)N2C1 [PP2139] | – | – | – | 38 | 0.38 | AA (a compound having 20 or more is denoted as AA) | A (a compound having 10 or more and less than 20 is denoted as A) | – | –
CCC[C@H]1C(=O)N[C@@H](C2CCCCC2)C(=O)N(C)CC(=O)N(C)[C@H]2C/C=C\CCN(C2=O)[C@@H](Cc2ccc(C)cc2)C(=O)N(C)CC(=O)N[C@@H](CCc2ccc(C(F)(F)F)c(Cl)c2)C(=O)N2C[C@H](OCC)C[C@H]2C(=O)NC2(CC(C)(C)C2)C(=O)N(C)[C@@H](CC(C)C)C(=O)N(C)[C@H](C(=O)N(C)C)CC(=O)N1C [PP3021] | 1.1 | AA (a compound having 20 or more is denoted as AA) | A (a compound having 10 or more and less than 20 is denoted as A) | 76.7 | – | – | – | – | –
CCC(CC)[C@H]1C(=O)N(C)[C@H](C(=O)N(C)C)CC(=O)N(C)[C@@H](COC)C(=O)N[C@@H]([C@@H](C)CC)C(=O)N(C)CC(=O)N(C)[C@H]2C/C=C\CCN(C2=O)[C@@H](Cc2ccc(C)cc2)C(=O)N(C)CC(=O)N[C@@H](CCc2ccc(Cl)c(Cl)c2)C(=O)N2CCCCC[C@H]2C(=O)NC2(CC(C)(C)C2)C(=O)N1C [PP2974] | 1.3 | A (a compound having 10 or more and less than 20 is denoted as A) | A (a compound having 10 or more and less than 20 is denoted as A) | 38.6 | – | – | – | – | –
CCO[C@@H]1C[C@H]2C(=O)NC3(CCC3)C(=O)N(C)[C@@H](C3CCCC3)C(=O)N(C)[C@H](C(=O)N3CCOCC3)CC(=O)N(C)[C@@H](CC3CC3)C(=O)N[C@@H]([C@@H](C)CC)C(=O)N(C)CC(=O)N(C)[C@H]3C/C=C\CCN(C3=O)[C@@H](Cc3ccc(F)cc3C)C(=O)N(C)CC(=O)N[C@@H](CCc3cc(F)c(C(F)(F)F)c(F)c3)C(=O)N2C1 [PP1495] | – | – | – | 98.7 | 0.55 | – | – | A (a compound having 10 or more and less than 20 is denoted as A) | B (a compound having 3 or more and less than 10 is denoted as B)
